“Also recorded” adds a separate entry of the source. Each block holds one molecule with its values, some of them ahead of it.
Tests used:
[1] = In situ transcardiac brain perfusion competition assay with excess unlabeled DHA: brain uptake rate (Ki) in 2-month-old mice
Description: (§1) Brain uptake of DHA was assessed in mice using an in situ transcardiac brain perfusion technique. […] The [1-^14C]DHA as NE-DHA (American Radiolabeled Chemicals, St. Louis, MO, USA; ARC0380), [^3H]mannitol (PerkinElmer, Waltham, MA, USA, NET101) and [^14C]sucrose (PerkinElmer, Waltham, MA, USA; NEC100X) were diluted to concentrations of 0.1 μCi/mL (DHA and sucrose) and 0.2 μCi/mL (mannitol) in a physiological buffer containing 141 mM NaCl (Sigma, St. Louis, MO, USA; 28–2270–5), 4 mM KCl (Wako, Osaka, Japan; 163–03545), 2.8 mM CaCl2 (Sigma; 05–0580), 1 mM MgSO4·7H2O (Kishida Chemical Co., Ltd., Osaka, Japan; 000–46905), 1 mM NaH2PO4·2H2O (Wako; 192–02815), 10 mM d-glucose (Wako; 041–00595), and 10 mM 4-(2-hydroxyethyl)-1-piperazineethanesulfonic acid (HEPES; Sigma; H4034); pH 7.4. In a competition assay, unlabeled NE-DHA (Sigma; D2534-100MG) was added to the perfusate (final concentration of unlabeled DHA: 100 μM) before infusion. Ethanol (Nacalai Tesque, Kyoto, Japan; 14713–95) was added to an equal volume of unlabeled DHA to the perfusate (final ethanol concentration: 0.001%) as the vehicle control.
(§2) Mice were anesthetized using an intraperitoneal injection of 25% urethane (Sigma; 94300). The heart was exposed, the left jugular vein was severed, and the descending aorta was ligated. Perfusate containing [^14C]DHA, [^3H]mannitol, or [^14C]sucrose was then infused into the left ventricle of the heart at a rate of 2 mL/min for 0.5 to 1.5 min using a 27 gauge butterfly needle. In the uptake experiment for aged mice, the perfusate was infused for 1 min. After perfusion, the brain was removed, dissected into six regions (the olfactory bulb, forebrain, cortex, hippocampus, thalamus and hypothalamus, and cerebellum), and weighed. Each brain region was mixed with 1 mL of tissue solubilizer (Solvable™; PerkinElmer; 6NE9100) and incubated at 60°C for 24 h. Samples were prepared for scintillation counting by the addition of 0.2 mL H2O2 (Sigma; 13-1910-5) and 10 mL of liquid scintillation cocktail (Pico-Fluor Plus; PerkinElmer; 6013699). The radioactivity in the samples was then measured using a liquid scintillation counter (Packard 2250CA; PerkinElmer). Brain/perfusate ratios were calculated by dividing the radioactivity in 1 g of brain tissue by the radioactivity in an mL of perfusate. Whole brain values were calculated by dividing the total radioactivity in each brain region by the total weight of each brain region. The unidirectional influx rate (Ki) was determined by the linear portion of the slope in the plot of brain/perfusate ratio against perfusion time.
Results are expressed as the mean ± standard error of the mean (SEM). Statistical analyses were performed using GraphPad Prism 8.0 (GraphPad, San Diego, CA, USA). […]

[2] = In situ transcardiac brain perfusion: brain/perfusate ratio at 1 min in 2-, 8-, 12- and 24-month-old mice; assay type: in vivo, C57BL/6J mice; conditions: for decrease of [14C]DHA brain/perfusate ratio: 1 min perfusion at 2 mL/min
Description: as §1, §2

[3] = test system: rat brain endothelial cells (RBECs); experiment: Cellular uptake of [14C]DHA by primary rat brain endothelial cells; assay type: cell-based
Description: The method of primary culture of rat brain endothelial cells (RBECs) is previously described. The meninges and white matter were carefully removed from the forebrains, and the gray matter was minced using a scalpel and enzymatic digestion by DMEM (Wako; 048–29763), including collagenase type 2 (1 mg/mL, Worthington, Lakewood, NJ, USA; CLS2) for 75 min at 37°C with agitation in the water bath. After inactivation by adding cold DMEM, the suspension was centrifuged (1,000 × g, 8 min). The pellet was separated by centrifugation in 20% BSA, (Wako, 011–27055)—DMEM (1,000 × g, 20 min). The pellet containing microvessels were further digested with DMEM including collagenase/dispase (1 mg/mL, Roche, Mannheim, Germany; 11097113001) for 20 min at 37°C with agitation in the water bath. After inactivation, microvessel clusters were separated on a 33% continuous Percoll (GE Healthcare, Buckinghamshire, UK; 17-5445-01) gradient, collected and plated on collagen type IV (0.1 mg/mL, Sigma; C5533) and fibronectin (0.075 mg/mL, Sigma; F1141-5MG) coated dishes. RBEC cultures were maintained in RBEC medium [DMEM/F12 (Wako; 042–30555) supplemented with 10% FBS (Biosera, Kansas, MO, USA; FB-1365/500), basic fibroblast growth factor (1.5 ng/mL, R&D, Minneapolis, MN, USA; 2099-FB-025), heparin (100 μg/mL, Sigma; H3149), insulin (5 μg/mL), transferrin (5 μg/mL), sodium selenite (5 ng/mL; insulin-transferrin-sodium selenite media supplement, Sigma; I1884), penicillin (100 units/mL), streptomycin (100 μg/mL; penicillin-streptomycin mixed solution, Nacalai Tesque; 09367–34) and gentamicin (50 μg/mL, Biowest, Riverside, MO, USA; L0012)] containing puromycin (4 μg/mL, Nacalai Tesque; 14861–84) at 37°C in a humidified atmosphere of 5% CO2/95% air, for three days and typically reached 70–80% confluency. […]
To measure the cellular uptake of DHA, RBECs cultured on a 24-well plate were incubated with 0.2 mL of physiological buffer containing 0.1 μCi/mL [^14C]DHA (incubation buffer) at 37°C for 30 s to 15 min. […] The total protein concentration in the cell lysates was determined using a Pierce™ BCA Protein Assay Kit. Samples were added to 10 mL of a liquid scintillation cocktail, then [^14C]DHA radioactivity in the cell lysate was measured using a liquid scintillation counter. The cellular uptake of [^14C]DHA by RBECs was expressed as cell/medium ratios calculated by dividing the radioactivity in one milligram of protein by the radioactivity in one microliter of the incubation buffer. The rate of cellular uptake was determined by the linear portion of the slope of the cell/medium ratios against the incubation time (0.5, 2, 5, and 10 min) graph.

[4] = cited from earlier work
[5] = parameters: method as in PMID 33054801; conditions: ref PMID 33054801; cited from earlier work
[6] = test system: bovine brain endothelial cells; parameters: method as in PMID: 9886086; conditions: 2 h incubation; ref PMID: 9886086; cited from earlier work
[7] = co-infusion of an excess amount of DHA
[8] = capillary depletion after a 40 s in situ brain perfusion, ref PMID: 19442696

Kin for [3H]mannitol [1, 7]: not changed | brain/perfusate ratio of [3H]mannitol [1, 7]: increased | effect of age on brain uptake of [3H]mannitol ([2]; each brain region, 2-, 8-, 12-, 24-month-old mice, 1 min): no significant effects with age
SMILES: OC[C@@H](O)[C@@H](O)[C@H](O)[C@H](O)CO [[^3H]mannitol, mannitol]
change in brain uptake (brain/perfusate ratio) of [3H]mannitol with age ([2]; whole brain, 2-, 8-, 12-, 24-month-old mice, 1 min): No significant changes; also recorded: no significant differences

perfusion time at which brain uptake of [14C]DHA plateaued ([1]; 2-month-old mice, perfusion at 2 mL/min): 1.5 min | rate of cellular uptake of [14C]DHA by RBECs ([3]; 4°C): 19.98 μLmg protein^-1 min^-1 | rate of cellular uptake of [14C]DHA by RBECs ([3]; 37°C): 50.13 μLmg protein^-1 min^-1 | time at which cellular uptake of [14C]DHA by RBECs peaked ([3]; intact RBECs, 37°C): 10 min | difference of [14C]DHA brain/perfusate ratio ([2]; forebrain, 2 vs. 12 months old): 0.04489 mL/g | difference of [14C]DHA brain/perfusate ratio ([2]; forebrain, 2 vs. 24 months old): 0.05294 mL/g | difference of [14C]DHA brain/perfusate ratio ([2]; hippocampus, 2 vs. 12 months old): 0.03402 mL/g | difference of [14C]DHA brain/perfusate ratio ([2]; hippocampus, 2 vs. 24 months old): 0.06034 mL/g | difference of [14C]DHA brain/perfusate ratio ([2]; olfactory bulb, 2 vs. 24 months old): 0.04626 mL/g | difference of [14C]DHA brain/perfusate ratio ([2]; thalamus and hypothalamus, 2 vs. 12 months old): 0.04306 mL/g | difference of [14C]DHA brain/perfusate ratio ([2]; thalamus and hypothalamus, 2 vs. 24 months old): 0.05106 mL/g | decrease of [14C]DHA brain/perfusate ratio ([2]; whole brain, 12-month-old vs 2-month-old mice): 0.03275 mL/g | decrease of [14C]DHA brain/perfusate ratio ([2]; whole brain, 24-month-old vs 2-month-old mice): 0.03827 mL/g
SMILES: CC/C=C\C/C=C\C/C=C\C/C=C\C/C=C\C/C=C\CCC(=O)O [[^14C]DHA, Docosahexaenoic acid]
[14C]DHA detected in brain parenchymal fraction [4, 8]: more than 90% | [14C]DHA remaining in the endothelial cells of the brain vasculature [4, 8]: less than 10% | [14C]DHA remaining in endothelial cells of the brain vasculature ([4]; capillary depletion after brain perfusion, ref 12 (printed [40])): less than 10%

SMILES: OC[C@@H](O)[C@@H](O)[C@H](O)[C@H](O)CO [mannitol]
brain concentrations and Kin compared with sucrose [5]: higher

SMILES: CC/C=C\C/C=C\C/C=C\C/C=C\C/C=C\C/C=C\CCC(=O)O [unlabeled DHA, Docosahexaenoic acid]
fate of non-esterified DHA taken up by brain endothelial cells [6]: mainly incorporated into phosphatidylcholine | inhibition at 100 µM ([1]; Mus musculus, read-out: extent of inhibition of the brain uptake rate of [14C]DHA): ~50% | effect on cellular uptake rate of [14C]DHA in rat brain endothelial cells ([3]; in the presence of unlabeled DHA, vs vehicle (Fig. F of response letter)): declined; also recorded: decreased
